Reference: patent publication US20120252894A1, “COMPOUNDS FOR ALLEVIATING PAIN AND STRESS IN FETUS AND NEWBORN” (priority 2011, published 2012)
Where a SMILES comes first, the peptide text is derived from it. Bridges are numbered along the chain shown (N, C = ends). [ ]: non-standard residue; d: D form. Orn = NCCC[C@H](N)C(=O)O; Mpa = O=C(O)CCS

Key:
newborn rats = experiment: Thermal tail-flick assay (tail immersion, 50° C. water); format: in vivo, rat; settings: for change in tail withdrawal delay: P0 rats, atosibane 2 μg/kg or SSR126768A 1 μg/kg intraperitoneal; for change in tail-flick delays: P2 rats, oxytocin receptor blockers; for reversal of the effect of oxytocin receptor blockers on tail-flick: newborn rats
Protocol: Pregnant and maternal Wistar rats were housed with a 12-h light-dark-cycle, at 24°±1° C., and food and water ad libitum. The day of birth was considered 0 day old (P0). Experiments on P0 rats (male and female) were performed within two hours after birth.
The pup was held in a box with a hole allowing the tail to protrude from it. The inner surface of the box was covered with an aluminum sheet forming an electrical contact with the rat body. The electrical circuit via the sheet, body, tail and water bath was powered by a 1.5 V battery and its connection and disconnection could be easily detected upon the tail immersion and withdrawal from the water, respectively. Electrical signals were digitized at 1 kHz using a Digidata 1200 and recorded to a computer. The distal tip of the tail was lowered into the water bath (50° C.). Latency to withdrawal was recorded as the “pain” parameter, with a 15-second maximum allowable threshold. After three habituation tests, the latency to withdrawal was determined from the average of three consecutive measurements.
We first tested pain sensitivity in the newborn rats using a thermal tail-flick response. In this test, pain sensitivity is reciprocal to the delay in tail withdrawal from the hot water. […] We studied thermal tail-flick response in two age groups: (i) fresh newborn animals which were examined immediately, within an hour, after birth (P0) and (ii) two day-old rat pups (P2). […] We further studied whether endogenous oxytocin is involved in reduced pain in the newborn rats. To block the action of endogenous oxytocin circulating in the newborn pups we used selective blockers of oxytocin receptors atosibane (2 μg/kg, intraperiotoneal) and SSR126768A (1 μg/kg, intraperiotoneal).

neonatal rats = experiment: Vocalization evoked by electrical stimulation of the whisker pad in decerebrated rat pups; format: in vivo
Protocol: Under isoflurane (1.5%) anaesthesia, rat pups were implanted with bipolar electrodes into the whisker pad and decerebrated at the upper pons level via a hole drilled 1 mm posterior to lambda using blunted 36 gouge needle, to avoid blood bleeding the hole was covered by cyanoacrylate after. After 10 min (P0) or one hour (P1-2 pups) of recovery period, the pups were wrapped by cotton and placed on the thermal blanket (38° C.). Whisker pad was stimulated by electrical train pulses (1 ms pulse duration, 5-25 V amplitude, 50 Hz, 1 minute inter-train interval). Vocalization response was recorded by microphone, digitized at 10 kHz using Digidata 1440 interface (Axon Instruments) and analyzed offline using Matlab (MathWorks, Natick, Mass.). To quantify the vocalization response, we calculated scalar integral (□) as following: (i) raw acustogram was converted to scalar acustogram by inverting all negative values to positive values; (ii) scalar acustogram was corrected for the baseline activity level by subtraction of the mean scalar acustogram value calculated during 1 minute before stimulation; (iii) scalar acustogram integral was calculated as cumulative, corrected for the baseline, scalar acustogram during 5 sec after stimulation.
In the experiments in vivo, Oxytocin (Sigma) 50 μM was injected at 0.1 ml/5 g (diluted in saline) IP, 30 min before testing. Bumetanide (Sigma) solution 25 μg/ml was injected IP at the dose of 5 μmol/kg, 30 min before testing. Atosiban (Sigma) (diluted in saline) was injected at 2 μg/kg, IP, 30 min before testing. SSR126768A (gift from Sanofi-Synthelabo) diluted in saline injected at 1 mg/kg IP, 30 min before testing. Sham injections in the control group were performed with equal volumes of saline.
In the second experiment, we studied oxytocin-modulation of the pain responses by measuring vocalization evoked by electrical stimulation of the whisker pad. Animals were decerebrated at caudal midbrain levels to cut the descending oxytocin projections from the VPN to spinal cord and to prevent noxious input to the brain. Electrical stimulation of the whisker pad evoked vocalization in the neonatal rats despite of decerebration. Vocalizing response was composed of several bursts with a dominant frequency in the range from 2.7 to 5 kHz (mean frequency 3.9±0.1 kHz n=24, rat P0-2). To quantify vocalization response, we calculated scalar acusticogram integral. In agreement with the results of the thermal tail-flick assay, oxytocin receptor blocker atosiban (2 μg/kg) increased vocalization response in the fresh newborn P0 rats (to 155±28%, n=8, p=0.0003;). […]

[1] = test system: isolated spinal cord preparations; experiment: Primary afferents depolarization (DR-DRPs) in isolated spinal cord; set-up: species or system rat
Protocol: Experiments were performed on lumbar (L) spinal cord preparations isolated from neonatal Wistar rats (P0-P1). All efforts were made to reduce the number of animals used and to minimize animal suffering. The experimental setup was the same as described previously (Taccola and Nistri, 2004). The spinal cord was superfused (5 ml min-1) with Krebs solution of the following composition (in mM): NaCl, 113; KCl, 4.5; MgCl2×7H2O, 1; CaCl2, 2; NaH2PO4, 1; NaHCO3, 25; glucose, 11; gassed with 95% O2-5% CO2; pH 7.4 at room temperature. All agents were bath-applied via the superfusing solution at the concentrations mentioned in the text. Recordings were obtained with glass suction electrodes (containing an Ag—AgCl pellet) filled with Krebs solution. Miniature bipolar suction electrodes were used in order to deliver single or repetitive electrical stimuli to DRs to evoke DR-DR potentials (DR-DRPs) (Kerkut and Bagust, 1995). Stimulus intensity was calculated in terms of threshold (Th), defined as the minimum intensity to elicit a detectable response in the homolateral VR.
Depolarizing action of GABA on the axons of primary afferents underlies primary afferents depolarization (PAD), that is a depolarizing response evoked by dorsal root stimulation in the neighboring dorsal root (Willis, 2006; Rudomin and Schmidt, 1999). Therefore, in the next experiments we have studied the effect of oxytocin on PAD in the in vitro isolated spinal cord preparations obtained from newborn rats.

[2] = test system: trigeminal sensory neurons; experiment: Calcium imaging of GABA-evoked intracellular calcium increases; format: cell-based, rat; settings: oxytocin 1 μM; for GABA-evoked intracellular calcium increases: trigeminal neurons from newborn rats, five hours in vitro
Protocol: Trigeminal sensory neurons were obtained from P0 rats. Animals were anesthetized by CO2 and decapitated. Trigeminal ganglia were excised and enzymatically dissociated in F12 medium containing 0.25 mg/ml trypsin, 1 mg/ml collagenase and 0.2 mg/ml DNAse (Sigma) at 37° C. Cells were plated on poly-1-lysine-coated Petri dishes in F12 medium with 10% fetal calf serum and examined 5 hours after plating. For Ca2+ imaging experiments cells were incubated for 40 min at 20-22° C. in physiological solution containing Fluo3 (AM ester cell-permeable compound; 1 μM; Molecular Probes), followed by a 30 min washout period. Fluorescence emission was detected with a Cell-R imaging system (Olympus, Hamburg, Germany). Images were acquired with 200 ms exposure time and single cell responses were analyzed with the Cell-R software. All drugs were applied via fast perfusion system (RDS-200, BioLogic Science Instruments Grenoble, France). Only cells with two stable control GABA transients were taken into analysis. Intracellular Ca2+ transients were expressed as percent amplitude increase (ΔF/F0, where F0 is the baseline fluorescence level and ΔF is the increment over baseline). Ca2+ transient intensity data was exported and then analyzed off-line using Excel and Origin (version 8.0) software. Significance was analyzed by non-parametric Mann-Witney test.
Because analgesic action of oxytocin in adult rats involves modulation of GABAergic control of the primary nociceptive afferents (Condes-Lara et al., 2009), we studied the effect of oxytocin on GABA responses in sensory trigeminal neurons, which detect noxious stimuli and conduct them to the spinal cord. Experiments were performed in primary cultures of trigeminal neurons dissociated from newborn rats and kept for five hours in vitro. In keeping with previous observations (Wang et al., 1994; Reichling et al., 1994), activation of GABA receptors induced robust transient increases of intracellular calcium in trigeminal neurons indicating depolarizing action of GABA and calcium entry into the cells via voltage-gated calcium channels. […]

TRPV1 receptors = target: T1, TRPV1 receptors (Rattus norvegicus, UniProt O35433); experiment: Calcium imaging of capsaicin-evoked responses in DRG neurons; format: cell-based
T1 construct: endogenous in cells; host or cells: acutely dissociated primary sensory neurons (trigeminal ganglia per methods; called DRG neurons in results) from P0 rats

P2X3 receptor = target: T2, P2X3 receptor (Rattus norvegicus, UniProt P49654); experiment: Calcium imaging of α-β-meATP-evoked responses in DRG neurons; format: cell-based
T2 construct: endogenous in cells; host or cells: acutely dissociated primary sensory neurons (trigeminal ganglia per methods; called DRG neurons in results) from P0 rats
T2 sequence (P49654 1-397): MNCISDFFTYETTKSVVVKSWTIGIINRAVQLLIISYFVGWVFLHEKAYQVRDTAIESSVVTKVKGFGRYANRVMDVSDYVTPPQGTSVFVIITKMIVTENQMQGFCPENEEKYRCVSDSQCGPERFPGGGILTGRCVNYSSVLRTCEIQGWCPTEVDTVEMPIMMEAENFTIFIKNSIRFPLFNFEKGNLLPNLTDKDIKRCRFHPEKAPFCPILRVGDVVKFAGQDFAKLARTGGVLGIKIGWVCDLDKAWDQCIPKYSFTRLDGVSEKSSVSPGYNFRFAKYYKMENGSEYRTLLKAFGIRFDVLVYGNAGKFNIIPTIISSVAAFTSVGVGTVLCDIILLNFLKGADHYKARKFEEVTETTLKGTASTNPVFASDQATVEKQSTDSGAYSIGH

GABA(A) channels = experiment: Cell-attached single GABA(A) channel recordings (GABA driving force); format: cell-based, rat; settings: immature trigeminal neurons; oxytocin 1 μM (control 38.7±2.4 mV)
Protocol: Single GABA channel recordings were performed from the trigeminal sensory neurons prepared as described above. Cell attached patch-clamp recordings were performed using Axopatch 200A (Axon Instruments, Union City, Calif.) and EPC-9 (HEKA Elektronik Dr. Schulze GmbH, Lambrecht/Pfalz, Germany) amplifiers. Patch electrodes were made from borosilicate glass capillaries (GC150F-15, Clark Electromedical Instruments). For recordings of single GABA(A) channels, patch pipette solution contained (in mM): NaCl 120, TEA-Cl 20, KCl 5, 4-aminopyridine 5, CaCl2 0.1, MgCl2 10, glucose 10, Hepes-NaOH 10 buffered to pH 7.2-7.3 and GABA (1-5 μM) was added at the day of experiment from 1 mM frozen stock solution. Driving force for GABA(A) receptor mediated currents was determined from the current-voltage relationships of the currents through single GABA(A) channels single as described earlier (Tyzio et al., 2006) and corrected for an error of 2 mV (Tyzio et al., 2008).
DFGABA was deduced from reversal potential of the currents via GABA(A) channels (Serafini et al., 1995; Tyzio et al., 2006; Tyzio et al., 2008). In control conditions, GABA exerted strongly depolarizing action on the immature trigeminal neurons with DFGABA of 38.7±2.4 mV (n=6). In the presence of oxytocin (1 μM), DFGABA reduced to 17.7±6.7 mV (n=5; P<0.05).

[3] = newborn rats, drug alone (oxytocin 1 μM; atosiban 10 μM)
[4] = recordings between 12 and 24 hours after birth, atosiban 10 μM, oxytocin

T1 sequence (O35433 whole entry): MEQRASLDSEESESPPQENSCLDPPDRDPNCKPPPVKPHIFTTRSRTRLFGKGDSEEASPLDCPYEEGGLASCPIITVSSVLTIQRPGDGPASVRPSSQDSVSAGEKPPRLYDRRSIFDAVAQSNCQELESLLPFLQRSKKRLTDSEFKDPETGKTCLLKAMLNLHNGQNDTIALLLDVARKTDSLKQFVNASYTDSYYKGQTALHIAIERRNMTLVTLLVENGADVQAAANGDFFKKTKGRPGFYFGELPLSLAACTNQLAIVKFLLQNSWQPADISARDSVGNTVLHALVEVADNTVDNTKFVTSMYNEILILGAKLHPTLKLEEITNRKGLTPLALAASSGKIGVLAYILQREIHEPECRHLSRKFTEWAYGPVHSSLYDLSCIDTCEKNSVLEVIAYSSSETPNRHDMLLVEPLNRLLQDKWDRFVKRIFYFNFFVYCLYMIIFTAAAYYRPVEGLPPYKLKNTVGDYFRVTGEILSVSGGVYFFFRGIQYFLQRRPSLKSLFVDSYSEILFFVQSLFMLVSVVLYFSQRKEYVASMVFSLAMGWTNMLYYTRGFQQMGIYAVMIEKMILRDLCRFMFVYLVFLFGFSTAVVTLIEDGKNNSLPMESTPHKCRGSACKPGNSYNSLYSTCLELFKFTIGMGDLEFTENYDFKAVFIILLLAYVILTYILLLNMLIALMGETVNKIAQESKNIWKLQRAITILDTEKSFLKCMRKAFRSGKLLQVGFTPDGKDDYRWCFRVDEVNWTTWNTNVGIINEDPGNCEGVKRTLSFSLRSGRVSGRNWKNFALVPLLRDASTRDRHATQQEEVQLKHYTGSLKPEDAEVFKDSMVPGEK

Compound: CCN(Cc1cccnc1)C(=O)c1ccc(Cl)c([C@]2(C)C(=O)N(Cc3ccc(OC)cc3OC)c3ccc(Cl)cc32)c1 [SSR126768A]
- change in tail withdrawal delay (newborn rats): nearly three-fold acceleration in the tail withdrawal
- change in tail-flick delays (newborn rats): did not significantly modify the tail-flick delays

Compound: CCOc1ccc(C[C@H]2NC(=O)CCSSC[C@@H](C(=O)N3CCC[C@H]3C(=O)N[C@@H](CCCN)C(=O)NCC(N)=O)NC(=O)[C@H](CC(N)=O)NC(=O)[C@H]([C@@H](C)O)NC(=O)[C@H]([C@@H](C)CC)NC2=O)cc1 [atosiban] ([Mpa][dY](Et)ITNCP[Orn]G-NH2; disulfide 1-6)
- vocalization response (scalar acusticogram integral) (neonatal rats; P0 rats, atosiban 2 μg/kg): 155±28%
- vocalization response, from control level (neonatal rats; P1-2 rats, atosiban on top of exogenous oxytocin): 84±38%
- peak of DR-DRPs, % of control ([1]; atosiban 10 μM added to oxytocin 1 μM): 106.0±20.8%
- peak of DR-DRPs, % of control [1, 3]: 112.7±9.1%
- peak of DR-DRPs, % of control [1, 4]: 90.0±9.8%
- change in tail withdrawal delay (newborn rats): nearly three-fold acceleration in the tail withdrawal
- change in tail-flick delays (newborn rats): did not significantly modify the tail-flick delays

Compound: CCCCNc1cc(C(=O)O)cc(S(N)(=O)=O)c1Oc1ccccc1 [bumetanide]
- vocalization response (scalar acusticogram integral) (neonatal rats; P1-2 rats, drug alone): 72±16%
- peak of DR-DRPs, % with respect to control values ([1]; bumetamide 20 μM added to atosiban 10 μM): 66.6±13.8%
- GABA-evoked intracellular calcium increases [2]: suppressed the GABA receptor mediated increases in intracellular calcium
- tail-flick responses (newborn rats; bumetanide 10 μM/kg, both age groups (P0 and P2)): strongly delayed the tail-flick responses
- reversal of the effect of oxytocin receptor blockers on tail-flick (newborn rats): reversed the effect of oxytocin receptor blockers

Compound: COc1cc(CNC(=O)CCCC/C=C/C(C)C)ccc1O [capsaicin]
- Ca2+ response evoked by agonist (TRPV1 receptors; 200 nM, 2 s pulses at 10 min intervals): evoked transient, and quite stable Ca2+ increases

Compound: CC[C@H](C)[C@@H]1NC(=O)[C@H](Cc2ccc(O)cc2)NC(=O)[C@@H](N)CSSC[C@@H](C(=O)N2CCC[C@H]2C(=O)N[C@@H](CC(C)C)C(=O)NCC(N)=O)NC(=O)[C@H](CC(N)=O)NC(=O)[C@H](CCC(N)=O)NC1=O [oxytocin]
- vocalization response (scalar acusticogram integral) (neonatal rats; P1-2 rats, drug alone): 41±12%
- amplitude of α-β-meATP (10 μM) evoked Ca2+ responses (P2X3 receptor; 1 μM-OT for 20-30 min): did not significantly change the amplitude
- peak of DR-DRPs, % of control [1, 3]: 93.6±5.6%
- peak of DR-DRPs, % of control [1, 4]: 77.8±21.6%
- GABA driving force (DFGABA) (GABA(A) channels): 17.7±6.7 mV
- duration of slow transient responses induced by the drug ([2]; not shown): 60 to 80 s
- GABA-evoked intracellular calcium increases [2]: significantly reduced GABA-evoked calcium increases
- analgesic effect in tail-flick test (newborn rats; exogenous oxytocin 1 μg/kg systemic, newborn and P2 rats): dramatic analgesic effect
- reversal of the effect of oxytocin receptor blockers on tail-flick (newborn rats): partially reverse the effects of the competitive oxytocin receptor blockers
- amplitude of capsaicin (200 nM) evoked Ca2+ responses (TRPV1 receptors; 1 μM-OT for 20-30 min): did not significantly change the amplitude

Compound: Nc1ncnc2c1ncn2[C@@H]1O[C@H](COP(=O)(O)CP(=O)(O)OP(=O)(O)O)[C@@H](O)[C@H]1O [α-β-methylenATP]
- Ca2+ response evoked by agonist (P2X3 receptor; 10 μM, 2 s pulses at 10 min intervals): evoked transient, and quite stable Ca2+ increases
